Measured values from paper PMC6342617 (Cancer chemotherapy and pharmacology, 2018).

What was measured:
[1] = system: cytochrome P450 enzymes; conditions: ref Hycamtin® prescribing information; cited from earlier work
[2] = phase I dose escalation study; cited from earlier work
[3] = system: substrates of CYP1A, CYP2C9, CYP2C19, CYP3A4 or P-glycoprotein; conditions: cited from earlier work
[4] = Tivantinib steady-state plasma pharmacokinetics; assay type: in vivo, human
[5] = system: gastric cancer; conditions: patients with gastric cancer; cited from earlier work
[6] = system: triple-negative breast cancer; conditions: patients with triple-negative breast cancer; cited from earlier work
[7] = system: hepatocellular carcinoma; conditions: patients with hepatocellular carcinoma; cited from earlier work
[8] = system: germ cell tumors; conditions: patients with germ cell tumors; cited from earlier work

Compound	Induction or inhibition of cytochrome P450 enzymes [1]	Maximum tolerated dose, single agent [2]	Interaction with substrates of CYP1A, CYP2C9, CYP2C19, CYP3A4 or P-glycoprotein [3]	AUC0–8 hr ([4]; Dose Level 1 (tivantinib 240 mg), n=1)	Clsys (oral clearance), range of observed values ([4]; Dose Levels −1 and A1 (tivantinib 120 mg), n=11) [L/h]	AUC(0-t) ([4]; human, plasma, oral, AUC0–12 hr, median, All Dose Levels, n=12) [ng·h/mL]	Responses, monotherapy [5]	Response rate, monotherapy [6] [%]	Responses, monotherapy [7]	Responses, monotherapy [8]
CC[C@@]1(O)C(=O)OCc2c1cc1n(c2=O)Cc2cc3c(CN(C)C)c(O)ccc3nc2-1 [topotecan]	has not been shown to induce or inhibit cytochrome P450 enzymes	–	–	–	–	–	–	–	–	–
O=C1NC(=O)[C@@H](c2cn3c4c(cccc24)CCC3)[C@@H]1c1c[nH]c2ccccc12 [tivantinib]	–	no maximum tolerated dose was identified	has not been shown to have a significant interaction	7,243 ng × hr/ml	2.4 to 44.5	10500	No responses were seen	5	No responses were seen	No responses were seen
